# Experimental data as given in patent US10201586B2 (dated 2019).
# Like-named read-outs stand apart in the source and are kept apart here. Where a SMILES comes first, the peptide text is derived from it. Bridges are numbered along the chain shown (N, C = ends). [ ]: non-standard residue; d: D form. The star is where a group is joined. X2 = NCCCC[C@H](NC(=O)CCC(=O)NCCCOCCOCCOCCCN*)C(=O)N[C@@H](CCCCN)C(=O)N[C@@H](CCCCNC(=O)CCCC[C@@H]1SC[C@@H]2NC(=O)N[C@@H]21)C(N)=O; NMeF = CN[C@@H](Cc1ccccc1)C(=O)O; β3hD = NC(CC(=O)O)CC(=O)O; Sar = CNCC(=O)O
# What was measured:
# TFPI [1] = biological target: T1, TFPI (Homo sapiens, UniProt P10646); test: Extrinsic Tenase Inhibition assay | EC50 (µM)
# Target sequence in this assay (P10646 29-304 limits assumed): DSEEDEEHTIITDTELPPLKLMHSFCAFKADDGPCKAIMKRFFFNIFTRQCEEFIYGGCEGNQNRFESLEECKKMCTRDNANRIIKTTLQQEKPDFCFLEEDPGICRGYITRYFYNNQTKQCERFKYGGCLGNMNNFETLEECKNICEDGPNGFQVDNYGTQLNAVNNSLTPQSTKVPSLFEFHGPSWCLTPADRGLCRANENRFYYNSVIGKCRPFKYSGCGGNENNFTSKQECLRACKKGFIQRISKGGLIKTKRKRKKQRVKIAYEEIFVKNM
# TFPI [2] = biological target: T1, TFPI; test: Extrinsic Tenase Inhibition by TFPI | EC50 (µM)
# Target sequence in this assay (P10646 29-304 limits assumed): as above
# TFPI [3] = biological target: T1, TFPI; test: Progress Curves of Inhibition of FXa | EC50 (µM)
# Target sequence in this assay (P10646 29-304 limits assumed): as above
# TFPI [4] = biological target: T1, TFPI; test: KD (M)
# Target sequence in this assay (P10646 29-304 limits assumed): as above
# TFPI [5] = biological target: T1, TFPI; test: koff (1/s); conditions: read-out: koff (1/s)
# Target sequence in this assay (P10646 29-304 limits assumed): as above
# TFPI [6] = biological target: T1, TFPI; test: BiaCore | kon (1/Ms); conditions: read-out: BiaCore | kon (1/Ms)
# Target sequence in this assay (P10646 29-304 limits assumed): as above
# TFPI [7] = biological target: T1, TFPI; test: % Inhibition @ 2.5µM
# TFPI [8] = biological target: T1, TFPI; test: Extrinsic Tenase Inhibition assay | % Inhibition @ 2.5µM
# [9] = biological target: Tissue Factor Pathway Inhibitor (TFPI) (Homo sapiens, UniProt P10646); test: Progress Curves of Inhibition of FXa | % Inhibit (2.5µM)
# TFPI [10] = biological target: T1, TFPI; test: Extrinsic Tenase Inhibition by TFPI | % Inhibit (2.5µM)
# TFPI [11] = biological target: T1, TFPI; test: % Inhibition @ 2.5µM; conditions: read-out: % Inhibition @ […]
# TFPI [12] = biological target: T1, TFPI; test: Extrinsic Tenase Inhibition assay | EC50 (µM); remark: listed apart in the source
# TFPI [13] = biological target: T1, TFPI; test: Extrinsic Tenase Inhibition by TFPI | % Inhibit (2.5µM); conditions: read-out: Extrinsic Tenase Inhibition by TFPI | % Inhibit ([…])
# TFPI [14] = biological target: T1, TFPI; test: Progress Curves of Inhibition of FXa | % Inhibit (2.5µM)
# TFPI [15] = biological target: T1, TFPI; test: Extrinsic Tenase Inhibition by TFPI | % Inhibit (2.5µM); remark: listed apart in the source
# TFPI [16] = biological target: T1, TFPI; test: % Inhibition @ 2.5µM; remark: listed apart in the source
# TFPI [17] = biological target: T1, TFPI; test: Extrinsic Tenase Inhibition by TFPI | % Inhibit (2.5µM); remark: listed apart in the source
# TFPI [18] = biological target: T1, TFPI; test: % Inhibition @ 2.5µM; remark: listed apart in the source
# human TFPI-1 = biological target: T2, human TFPI-1 (Homo sapiens, UniProt P10646); test: BIAcore surface plasmon resonance assay; assay type: binding
# T2 construct: human TFPI-1 (residues 29-282 fused at the C-terminus to a 10 His-tag); purchased R&D Systems 2974-PI
# T2 sequence (P10646 29-282): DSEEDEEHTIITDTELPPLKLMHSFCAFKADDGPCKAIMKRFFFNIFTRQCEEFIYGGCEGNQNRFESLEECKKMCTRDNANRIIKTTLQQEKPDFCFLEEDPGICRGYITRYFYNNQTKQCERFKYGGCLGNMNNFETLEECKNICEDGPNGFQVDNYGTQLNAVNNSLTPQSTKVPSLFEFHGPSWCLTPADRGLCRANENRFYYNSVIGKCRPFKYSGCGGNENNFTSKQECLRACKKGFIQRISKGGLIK
# TFPI [19] = biological target: T1, TFPI; test: % Inhibition @ 2.5µM; conditions: read-out: % Inhibition @ […]; remark: listed apart in the source
# TFPI [20] = biological target: T1, TFPI; test: IC50 Mean (nM]
# TFPI [21] = biological target: T1, TFPI; test: Extrinsic Tenase Inhibition assay | % Inhibition @ 2.5µM; remark: listed apart in the source
# TFPI [22] = biological target: T1, TFPI; test: as above; conditions: read-out: Extrinsic Tenase Inhibition assay | % Inhibition @ […]
# TFPI [23] = biological target: T1, TFPI; test: FXa Inhibition assay | EC50 (µM)
molecule,measurement,setting,value
CC(=O)N(C)[C@@H](Cc1ccccc1)C(=O)N[C@@H](CCC(N)=O)C(=O)N[C@@H](CO)C(=O)N[C@@H](CCCCN)C(=O)NCC(=O)N[C@@H](CC(N)=O)C(=O)N[C@H](C(=O)N[C@@H](Cc1ccccc1)C(=O)N[C@H](C(=O)N[C@@H](Cc1ccccc1)C(=O)NCC(=O)N[C@@H](Cc1ccc(O)cc1)C(=O)N[C@@H](Cc1ccccc1)C(=O)N[C@@H](CCC(=O)O)C(=O)N[C@@H](CCCNC(=N)N)C(=O)N[C@@H](CC(C)C)C(=O)N[C@@H](CCCNC(=N)N)C(=O)N[C@@H](C)C(=O)N[C@@H](CCCCN)C(=O)N[C@@H](CC(C)C)C(N)=O)C(C)C)C(C)C [JBT0497] (Ac-[NMeF]QSKGNVFVFGYFERLRAKL-NH2),EC50,TFPI [1],1.13 µM
CSCC[C@@H]1NC(=O)CNC(=O)[C@@H](NC(=O)[C@H](Cc2ccccc2)NC(=O)[C@H](Cc2c[nH]c3ccccc23)NC(=O)[C@H](CCCCN)NC(=O)[C@H](Cc2ccc(O)cc2)NC(=O)[C@H](CCCNC(=N)N)NC(=O)[C@H](CO)NC(=O)[C@H](C)NC(=O)CNC(=O)[C@H](CO)NC(C)=O)CSSC[C@@H](C(=O)N[C@H](C(=O)N[C@@H](Cc2c[nH]c3ccccc23)C(=O)N[C@H](C(=O)N[C@@H](CCCCN)C(N)=O)C(C)C)C(C)C)NC(=O)[C@H](CO)NC(=O)[C@H](CCSC)NC(=O)[C@H]([C@@H](C)O)NC(=O)CNC(=O)[C@H](CCCCN)NC(=O)[C@H](CCSC)NC(=O)[C@H](CC(=O)O)NC(=O)[C@H](CCCNC(=N)N)NC1=O [JBT0320] (Ac-SGASRYKWFCGMRDMKGTMSCVWVK-NH2; disulfide 10-21),EC50,TFPI [2],6.4 µM
same,EC50,TFPI [3],18.8 µM
same,Kd,TFPI [4],0.238 µM
same,koff,TFPI [5],0.0425 s⁻¹
same,kon,TFPI [6],178000 M⁻¹ s⁻¹
Ac-FQSKGNVFVFGYFERLR-bAla-KL-NH2 (SEQ ID NO: 423) [JBT0532],% Inhibition @ […],TFPI [7],14%
same,Extrinsic Tenase Inhibition assay | % Inhibition @ […],TFPI [8],0%
Ac- KKPLAVQLHVSKRSKEMALARLYYKTSKK- NH2 (SEQ ID NO: 2129) (Ac-KKPLAVQLHVSKRSKEMALARLYYKTSKK-NH2) [JBT0229],Progress Curves of Inhibition of FXa | % Inhibit ([…]),[9],0%
same,Extrinsic Tenase Inhibition by TFPI | % Inhibit ([…]),TFPI [10],0%
CC(=O)N[C@@H](Cc1ccccc1)C(=O)N[C@@H](CCC(N)=O)C(=O)N[C@@H](CO)C(=O)N[C@@H](CCCCN)C(=O)N(C)CC(=O)N[C@@H](CC(N)=O)C(=O)N[C@H](C(=O)N[C@@H](Cc1ccccc1)C(=O)N[C@H](C(=O)N[C@@H](Cc1ccccc1)C(=O)NCC(=O)N[C@@H](Cc1ccc(O)cc1)C(=O)N[C@@H](Cc1ccccc1)C(=O)N[C@@H](C)C(=O)N[C@@H](CCCNC(=N)N)C(=O)N[C@@H](CC(C)C)C(=O)N[C@@H](CCCNC(=N)N)C(=O)N[C@@H](C)C(=O)N[C@@H](CCCCN)C(=O)N[C@@H](CC(C)C)C(N)=O)C(C)C)C(C)C [JBT0780] (Ac-FQSK[Sar]NVFVFGYFARLRAKL-NH2),inhibition at […],TFPI [11],45%
same,EC50,TFPI [12],1.92 µM
CC[C@H](C)[C@H](NC(=O)[C@H](CC(=O)O)NC(=O)[C@@H]1CCCN1C(=O)[C@H](Cc1c[nH]c2ccccc12)NC(=O)[C@H](CCSC)NC(=O)[C@@H](NC(=O)[C@H](Cc1c[nH]c2ccccc12)NC(=O)[C@H](Cc1ccccc1)NC(=O)[C@H](Cc1ccc(O)cc1)NC(=O)[C@H](CCCNC(=N)N)NC(=O)[C@@H]1CCCN1C(=O)[C@H](Cc1c[nH]cn1)NC(=O)[C@@H](NC(=O)[C@H](CCC(N)=O)NC(=O)[C@H](Cc1c[nH]c2ccccc12)NC(=O)[C@@H](NC(=O)CNC(=O)[C@H](CO)NC(=O)[C@H](CCCCN)NC(=O)[C@H](CCCCN)NC(C)=O)C(C)C)[C@@H](C)O)[C@@H](C)O)C(=O)N[C@@H](CCCCN)C(=O)NCC(=O)N[C@@H](CCC(=O)O)C(=O)N[C@H](C(=O)N[C@H](C(=O)N[C@H](C(=O)N[C@@H](CC(C)C)C(=O)N[C@@H](Cc1ccccc1)C(=O)NCC(=O)N[C@H](C(=O)N[C@@H](CO)C(=O)NCCCOCCOCCOCCCNC(=O)CCC(=O)N[C@@H](CCCCN)C(=O)N[C@@H](CCCCN)C(=O)N[C@@H](CCCCNC(=O)CCCC[C@@H]1SC[C@@H]2NC(=O)N[C@@H]21)C(N)=O)[C@@H](C)O)C(C)C)[C@@H](C)CC)C(C)C [JBT0103] (Ac-KKSGVWQTHPRYFWTMWPDIKGEVIVLFGTS-X2),inhibition at […],TFPI [13],21%
Ac-SRYKWFSGMRDMKGTMSSVWVKF-NH2 (SEQ ID NO: 1229) [JBT0417],Progress Curves of Inhibition of FXa | % Inhibit ([…]),TFPI [14],2%
same,Extrinsic Tenase Inhibition by TFPI | % Inhibit ([…]),TFPI [15],11%
same,% Inhibition @ […],TFPI [16],0%
Ac-ASFPLAVQLHVSKRSKE-NH2 (SEQ ID NO: 2313) [JBT0363],Extrinsic Tenase Inhibition by TFPI | % Inhibit ([…]),TFPI [17],9%
same,% Inhibition @ […],TFPI [18],0%
CC(=O)N[C@@H](Cc1ccccc1)C(=O)N[C@@H](CCC(N)=O)C(=O)N[C@@H](CO)C(=O)N[C@@H](CCCCN)C(=O)N[C@@H](CC(N)=O)C(=O)N[C@@H](CC(N)=O)C(=O)N[C@H](C(=O)N[C@@H](Cc1ccccc1)C(=O)N[C@H](C(=O)N[C@@H](Cc1ccccc1)C(=O)NCC(=O)N[C@@H](Cc1ccc(O)cc1)C(=O)N[C@@H](Cc1ccccc1)C(=O)N[C@@H](CCC(=O)O)C(=O)N[C@@H](CCCNC(=N)N)C(=O)N[C@@H](CC(C)C)C(=O)N[C@@H](CCCNC(=N)N)C(=O)N[C@@H](C)C(=O)N[C@@H](CCCCN)C(=O)N[C@@H](CC(C)C)C(N)=O)C(C)C)C(C)C [JBT0297] (Ac-FQSKNNVFVFGYFERLRAKL-NH2),koff,human TFPI-1,0.014 s⁻¹
same,kon,human TFPI-1,500000 M⁻¹ s⁻¹
same,inhibition at […],TFPI [19],59%
same,IC50,TFPI [20],0.063 µM
Ac-FQSKGNVFVFGYF-bE-RLRAKL-NH2 (SEQ ID NO: 272) (Ac-FQSKGNVFVFGYF[β3hD]RLRAKL-NH2; SMILES CC(=O)N[C@@H](Cc1ccccc1)C(=O)N[C@@H](CCC(N)=O)C(=O)N[C@@H](CO)C(=O)N[C@@H](CCCCN)C(=O)NCC(=O)N[C@@H](CC(N)=O)C(=O)N[C@H](C(=O)N[C@@H](Cc1ccccc1)C(=O)N[C@H](C(=O)N[C@@H](Cc1ccccc1)C(=O)NCC(=O)N[C@@H](Cc1ccc(O)cc1)C(=O)N[C@@H](Cc1ccccc1)C(=O)N[C@@H](CC(=O)O)CC(=O)N[C@@H](CCCNC(=N)N)C(=O)N[C@@H](CC(C)C)C(=O)N[C@@H](CCCNC(=N)N)C(=O)N[C@@H](C)C(=O)N[C@@H](CCCCN)C(=O)N[C@@H](CC(C)C)C(N)=O)C(C)C)C(C)C) [JBT0528],% Inhibition @ […],TFPI [7],25%
same,Extrinsic Tenase Inhibition assay | % Inhibition @ […],TFPI [21],8%
CC(=O)N[C@@H](Cc1ccccc1)C(=O)N[C@@H](CCC(N)=O)C(=O)N[C@@H](CO)C(=O)N[C@@H](CCCCN)C(=O)N(C)CC(=O)N[C@@H](CC(N)=O)C(=O)N[C@H](C(=O)N[C@@H](Cc1ccccc1)C(=O)N[C@H](C(=O)N[C@H](C(=O)NCC(=O)N[C@@H](Cc1ccc(O)cc1)C(=O)N[C@@H](Cc1ccccc1)C(=O)N[C@@H](CCC(=O)O)C(=O)N[C@@H](CCCNC(=N)N)C(=O)N[C@@H](CC(C)C)C(=O)N[C@@H](CCCNC(=N)N)C(=O)N[C@@H](C)C(=O)N[C@@H](CCCCN)C(=O)N[C@@H](CC(C)C)C(N)=O)[C@@H](C)O)C(C)C)C(C)C [JBT1155] (Ac-FQSK[Sar]NVFVTGYFERLRAKL-NH2),inhibition at […],TFPI [22],32%
same,EC50,TFPI [23],0.21 µM
